Measured values from ChEMBL document CHEMBL1144741, “Review of cytotoxic cephalostatins and ritterazines: isolation and synthesis” (2008).

These molecules were tested on P388 (assay: Antitumor activity against mouse P388 cells). Details: read-out: ED50 (the source's name).
Format: functional

Row | Compound | EC50 [nM]
1 | C[C@H]1[C@H]2[C@H](C[C@@H]3[C@@H]4CC[C@H]5Cc6nc7c(nc6C[C@]5(C)[C@H]4C[C@@H](O)[C@]23C)C[C@@H]2CC[C@@H]3[C@@H](CC(=O)[C@]34C[C@@H]3O[C@]5(CCC(C)(C)O5)[C@@H](C)[C@@H]3[C@]4(C)O)[C@@]2(C)C7)O[C@@]12CCC(C)(C)O2 [RITTERAZINE Q] | 657
2 | C[C@@H]1[C@@]2(CC[C@](C)(O)CO2)O[C@H]2C=C3[C@@H]4CC[C@H]5Cc6nc7c(nc6C[C@]5(C)[C@H]4C[C@@H](O)[C@]3(C)[C@]21O)C[C@@H]1CC[C@H]2C3=C[C@@H]4O[C@@]5(CC[C@](C)(O)CO5)[C@@H](C)[C@@H]4[C@@]3(C)[C@H](O)C[C@@H]2[C@@]1(C)C7 [RITTERAZINE M] | 16.7
3 | C[C@@H]1[C@H](C)[C@]2(OC[C@]34C(=O)C[C@@H]5[C@@H](CC[C@H]6Cc7nc8c(nc7C[C@@]65C)C[C@@H]5CC[C@@H]6[C@H](CC(=O)[C@]67C[C@@H]6O[C@@]9(CCC(C)(C)O9)[C@@H](C)[C@@H]6[C@]7(C)O)[C@@]5(C)C8)[C@H]3C[C@H](O)[C@@H]4[C@H]2C)OC1(C)C [RITTERAZINE Z] | 2200
4 | C[C@H]1[C@H]2[C@H](C[C@]3(C(=O)C[C@@H]4[C@H]3CC[C@H]3Cc5nc6c(nc5C[C@@]34C)C[C@@H]3CC[C@@H]4[C@H](CC(=O)[C@]45C[C@@H]4O[C@@]7(CCC(C)(C)O7)[C@@H](C)[C@@H]4[C@]5(C)O)[C@@]3(C)C6)[C@@]2(C)O)O[C@@]12CCC(C)(C)O2 [RITTERAZINE N] | 522

Now those with a lower EC50, led by results:

Row | EC50 [nM] | Compound
5 | 3.8 | C[C@@H]1[C@@]2(CC[C@](C)(O)CO2)O[C@H]2C=C3[C@@H]4[C@@H](O)C[C@H]5Cc6nc7c(nc6C[C@]5(C)[C@H]4C[C@@H](O)[C@]3(C)[C@]21O)C[C@@H]1CC[C@@H]2[C@H](CC(=O)[C@]23C[C@@H]2O[C@]4(C[C@H](C)C(C)(C)O4)[C@@H](C)[C@@H]2[C@]3(C)O)[C@@]1(C)C7 [RITTERAZINE E]
6 | 14.2 | C[C@@H]1[C@@]2(CC[C@](C)(O)CO2)O[C@H]2C=C3[C@@H]4[C@@H](O)C[C@H]5Cc6nc7c(nc6C[C@]5(C)[C@H]4C[C@@H](O)[C@]3(C)[C@]21O)C[C@@H]1CC[C@@H]2[C@H](CC(=O)[C@]23C[C@@H]2O[C@@]4(CCC(C)(C)O4)[C@@H](C)[C@@H]2[C@]3(C)O)[C@@]1(C)C7 [RITTERAZINE A]
7 | 10.4 | C[C@@H]1[C@@]2(CC[C@](C)(O)CO2)O[C@H]2C=C3[C@H]4CC[C@H]5Cc6nc7c(nc6C[C@]5(C)[C@H]4C[C@@H](O)[C@]3(C)[C@]21O)C[C@@H]1CC[C@H]2C3=C[C@@H]4O[C@]5(CC[C@@](C)(O)CO5)[C@@H](C)[C@]4(O)[C@@]3(C)[C@H](O)C[C@@H]2[C@@]1(C)C7 [RITTERAZINE K]
8 | 3.2 | CO[C@H]1c2nc3c(nc2C[C@@H]2CC[C@H]4C5=C[C@@H]6O[C@]7(O[C@](C)(CO)C[C@H]7O)[C@@H](C)[C@]6(O)[C@@]5(C)[C@H](O)C[C@@H]4[C@]21C)C[C@@]1(C)[C@@H](CC[C@H]2C4=CC[C@@H]5[C@H](C)[C@@]6(OC[C@]45C(=O)C[C@@]21O)OC(C)(C)C[C@H]6O)C3 [CEPHALOSTATIN 10]
9 | 15.3 | C[C@@H]1[C@@]2(CC[C@](C)(O)CO2)O[C@H]2C=C3[C@@H]4[C@@H](O)C[C@H]5Cc6nc7c(nc6C[C@]5(C)[C@H]4C[C@@H](O)[C@]3(C)[C@]21O)C[C@@H]1CC[C@@H]2[C@H](CC(=O)[C@]3(C)[C@H]4C[C@@]5(CCC(C)(C)O5)O[C@H]4C[C@]23O)[C@@]1(C)C7 [RITTERAZINE I]
